Test results as given in ChEMBL document CHEMBL1142904, “Modulating effects of a novel skin-lightening agent, alpha-lipoic acid derivative, on melanin production by the formation of DOPA conjugate products” (Bioorg Med Chem, 2007).
One block for each molecule: values may come before it. Calls of active or inactive are those of the source. No cut-off for these calls is given here.

Experiments:
B16 = test: Inhibition of melanin synthesis in mouse B16 cells at 75 uM after 3 days; format: functional; conditions: B16, 72 h
[1] = biological target: T1, Tyrosinase (Agaricus bisporus) (UniProt O42713); test: Inhibition of mushroom tyrosinase catalyzed oxidation of L-DOPA assessed as DOPAchrome formation at 120 uM
T1 sequence (whole entry): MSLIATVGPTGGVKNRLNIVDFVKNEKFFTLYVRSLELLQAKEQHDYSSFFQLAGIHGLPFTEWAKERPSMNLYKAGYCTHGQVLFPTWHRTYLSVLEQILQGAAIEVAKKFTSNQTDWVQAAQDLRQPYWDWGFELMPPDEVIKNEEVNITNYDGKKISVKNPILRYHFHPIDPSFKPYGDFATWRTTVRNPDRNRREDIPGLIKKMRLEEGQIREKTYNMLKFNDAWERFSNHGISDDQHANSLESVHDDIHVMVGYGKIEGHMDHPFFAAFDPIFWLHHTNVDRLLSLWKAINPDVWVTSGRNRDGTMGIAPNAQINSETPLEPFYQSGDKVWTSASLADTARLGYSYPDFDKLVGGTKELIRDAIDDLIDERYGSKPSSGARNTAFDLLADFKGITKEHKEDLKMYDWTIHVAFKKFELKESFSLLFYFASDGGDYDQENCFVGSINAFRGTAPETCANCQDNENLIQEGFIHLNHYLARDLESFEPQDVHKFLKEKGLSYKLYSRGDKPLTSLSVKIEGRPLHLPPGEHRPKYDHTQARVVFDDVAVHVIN

Tyrosinase = biological target: T2, Tyrosinase (Agaricus bisporus, UniProt O42713); test: Inhibition of mushroom tyrosinase
T2 sequence (O42713 whole entry): T1 sequence (whole entry)

[2] = biological target: T1, Tyrosinase (Agaricus bisporus); conditions: 4 uM
Description: Inhibition of mushroom tyrosinase at 4 uM

[3] = substrate: N[C@@H](Cc1ccc(O)c(O)c1)C(=O)O; test: Activity of mushroom tyrosinase; conditions: Agaricus bisporus
[4] = substrate: O=C(CCCCC1CCS[Zn]S1)NC(Cc1c[nH]cn1)C(=O)O; conditions: Agaricus bisporus; 1.3 uM
Description: Activity of mushroom tyrosinase at 1.3 uM

Activity [1]: Active
Molecule: O=C(O)CCCC[C@@H](S)CCS [DIHYDROLIPOIC ACID]
inhibition at 75 µM (B16): 36.3%

IC50 (Tyrosinase): 1300 nM
Activity [1]: Active
inhibition [2]: 82.9%
Molecule: O=C(CCCCC1CC[S][Zn][S]1)NC(Cc1c[nH]cn1)C(=O)O (centres undefined) [SODIUM ZINC DIHYDROLIPOYLHISTIDINATE]
inhibition at 75 µM (B16): 41.5%

The next lines start with the molecule.

Molecule: OC[C@H]1O[C@H](Oc2ccc(O)cc2)[C@H](O)[C@@H](O)[C@@H]1O
inhibition at 75 µM (B16): 38.3%

B1: Tyrosinase (Agaricus bisporus), O42713 (protein)
chain: T1 sequence (whole entry)
Km [3]: 860 µM
Km [4]: 4.1 µM
